Test results published in article PMC6287396, “Hyperactivation of Oncogenic JAK3 Mutants Depend on ATP Binding to the Pseudokinase Domain” (Frontiers in Oncology, 2018).

Tests used:
JAK3 JH2 [1] = target: T1, JAK3 JH2 (Homo sapiens, UniProt P52333); assay: Differential scanning fluorimetry (thermal shift); format: binding; conditions: for Effect of nucleotide on Tm (ΔTm): JAK3 JH2, nucleotide titration 0.2, 0.5, 1 mM
T1 construct: JAK3 JH2 (residues 511–790) was cloned into the pFASTBAC1 vector (Invitrogen) with a C-terminal His6 tag; His6 (C); made in house; host or cells: Spodoptera frugiperda (Sf9) insect cells, baculovirus (pFASTBAC1)
T1 sequence (P52333 511-790): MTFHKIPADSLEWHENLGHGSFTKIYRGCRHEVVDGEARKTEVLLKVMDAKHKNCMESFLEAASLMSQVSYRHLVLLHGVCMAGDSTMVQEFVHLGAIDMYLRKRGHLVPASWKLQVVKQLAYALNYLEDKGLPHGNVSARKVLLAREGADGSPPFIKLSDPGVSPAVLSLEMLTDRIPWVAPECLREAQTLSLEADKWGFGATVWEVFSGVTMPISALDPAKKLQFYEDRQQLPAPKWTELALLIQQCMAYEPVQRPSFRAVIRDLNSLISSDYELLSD
Method: (§1) Protein concentration of 3 μM was used for the measurement of the melting temperature (Tm). Reactions were done in the buffer used in the SEC. Addition of other components (ATP, salts) were taken into account by including 2X buffer, if needed. Signal arising from the fluorescent dye Life Technologies SYPRO^TM Orange Protein Gel Stain, 4X working solution from 5000X concentrate in DMSO) was measured with a conventional Real-Time PCR system (Bio-Rad CFX), 1°C per min from 4 to 96°C. Results were transferred and normalized in Microsoft Excel and the Tm was derived from the sigmoidal function using GraphPad Prism version 5.02 for Windows, GraphPad Software, La Jolla California USA, https://www.graphpad.com/.

JAK3 JH2 [2] = target: T1, JAK3 JH2; assay: MANT-ATP binding assay (steady-state FRET)
Method: The steady-state fluorescence of MANT-labeled ATP was measured as described in Mysore et al. ([34]). Briefly, the fluorescently labeled MANT (2′/3′-(N-methyl-anthraniloyl)-ATP was titrated against 1.5 μM recombinant JAK3 JH2. In addition, the protein was titrated as 0, 0.05, 0.25, 1.25, and […] against 0.25 μM MANT-ATP. FRET signal was measured with QuantaMaster PTI Fluorometer and the data was analyzed using GraphPad Prism version 5.02 and Microsoft Excel. Protein titrations were done in duplicate and in MANT-ATP titration in triplicate.

JAK2 JH2 [3] = target: T2, JAK2 JH2; design: method as in PMID 25825724; conditions: JAK2 JH2, with MgCl2; read-out: Kd (MANT-ATP); cited from earlier work
T2 construct: JAK2 JH2 503-827-His; His (C)

JAK1 JH2 [4] = target: T3, JAK1 JH2; design: method as in PMID 25825724; conditions: JAK1 JH2, with MgCl2; read-out: Kd (MANT-ATP); cited from earlier work
T3 construct: Recombinant JAK1 JH2 553-836-His; His (C)

TYK2 JH2 [5] = target: T4, TYK2 JH2; design: method as in PMID 26359499; conditions: TYK2 JH2, with MgCl2; read-out: Kd (MANT-ATP); cited from earlier work
T4 construct: TYK2 JH2 564-876-His proteins; His (C)

JAK1 JH2 553-836-His = target: T5, JAK1 JH2 553-836-His (Homo sapiens, UniProt P23458); assay: Fluorescence polarization competition assay (ATP vs Bodipy FL JNJ-7706621 tracer); format: binding; conditions: JAK1 JH2, ATP competing with tracer, with MgCl2
T5 construct: Recombinant JAK1 JH2 553-836-His; His (C)
T5 sequence (P23458 553-836): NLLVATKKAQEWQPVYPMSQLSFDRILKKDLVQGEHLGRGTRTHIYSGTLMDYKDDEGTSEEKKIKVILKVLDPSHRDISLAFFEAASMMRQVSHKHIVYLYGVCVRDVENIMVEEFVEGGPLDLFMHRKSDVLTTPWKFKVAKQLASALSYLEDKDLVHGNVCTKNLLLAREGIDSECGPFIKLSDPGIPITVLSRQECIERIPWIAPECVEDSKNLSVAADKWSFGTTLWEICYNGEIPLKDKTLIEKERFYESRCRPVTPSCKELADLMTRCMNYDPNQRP
Method: (§2) Fluorescence polarization measurements were performed in black 384-well plates (ProxiPlate-384 F Plus, PerkinElmer) at sample volume of 5 μl/well on PerkinElmer Envision plate reader using 480 nm excitation and 535 nm emission filters. Fluorescent tracer, Bodipy FL labeled JNJ-7706621 [compound 5 in ([35])] was used at 1.5 nM concentration. Recombinant JAK1 JH2 553-836-His, JAK2 JH2 503-827-His, JAK3 JH2 511-790-His, and TYK2 JH2 564-876-His proteins were used at concentrations (2 nM JAK1, 150 nM JAK2, 1 μM JAK3, 20 nM TYK2) dependent on protein-tracer dissociation constants. The assays were performed in a buffer consisting of 20 mM Tris-HCl pH 8.0, 150 mM NaCl, 20% glycerol, 0.01% Brij-35, and 2 mM DTT. ATP was titrated at concentration range of 5 nM−5 μM and fluorescence polarization values obtained were fitted against log[ATP] in GraphPad Prism to yield IC50 values. Assays were performed in triplicate.

JAK2 JH2 503-827-His = target: T6, JAK2 JH2 503-827-His (Homo sapiens, UniProt O60674); assay: as above; format: binding; conditions: JAK2 JH2, ATP competing with tracer, with MgCl2
T6 construct: JAK2 JH2 503-827-His; His (C)
T6 sequence (O60674 503-827): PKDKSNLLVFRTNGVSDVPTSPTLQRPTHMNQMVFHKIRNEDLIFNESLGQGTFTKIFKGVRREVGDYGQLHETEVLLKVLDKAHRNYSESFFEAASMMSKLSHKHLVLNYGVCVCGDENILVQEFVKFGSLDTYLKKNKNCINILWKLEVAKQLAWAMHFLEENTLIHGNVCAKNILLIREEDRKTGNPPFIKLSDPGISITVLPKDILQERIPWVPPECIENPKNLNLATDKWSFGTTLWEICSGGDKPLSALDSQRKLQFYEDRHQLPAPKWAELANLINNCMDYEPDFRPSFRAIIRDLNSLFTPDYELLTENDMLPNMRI
Method: as §2

JAK3 JH2 511-790-His = target: T7, JAK3 JH2 511-790-His (Homo sapiens, UniProt P52333); assay: as above; format: binding; conditions: JAK3 JH2, ATP competing with tracer, no MgCl2 added
T7 construct: JAK3 JH2 (residues 511–790) was cloned into the pFASTBAC1 vector (Invitrogen) with a C-terminal His6 tag; His6 (C); made in house; host or cells: Spodoptera frugiperda (Sf9) insect cells, baculovirus (pFASTBAC1)
T7 sequence (P52333 511-790): T1 sequence (P52333 511-790)
Method: as §2

TYK2 JH2 564-876-His = target: T8, TYK2 JH2 564-876-His (Homo sapiens, UniProt P29597); assay: as above; format: binding; conditions: TYK2 JH2, ATP competing with tracer, with MgCl2
T8 construct: TYK2 JH2 564-876-His proteins; His (C)
T8 sequence (P29597 564-876): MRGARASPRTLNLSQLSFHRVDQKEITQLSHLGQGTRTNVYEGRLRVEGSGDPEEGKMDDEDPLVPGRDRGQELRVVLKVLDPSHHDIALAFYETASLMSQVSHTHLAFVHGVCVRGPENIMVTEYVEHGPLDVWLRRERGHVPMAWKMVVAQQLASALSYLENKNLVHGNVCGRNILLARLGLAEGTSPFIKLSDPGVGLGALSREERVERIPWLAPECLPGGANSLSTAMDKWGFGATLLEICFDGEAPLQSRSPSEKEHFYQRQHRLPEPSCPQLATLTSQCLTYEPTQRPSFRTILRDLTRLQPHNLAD
Method: as §2

JAK1 JH2 [6] = system: T3, JAK1 JH2; assay: Differential scanning fluorimetry (thermal shift); format: binding; conditions: JAK1 JH2, 1 mM ATP
Method: as §1

JAK2 JH2 [7] = system: T2, JAK2 JH2; assay: Differential scanning fluorimetry (thermal shift); format: binding
Method: as §1

TYK2 JH2 [8] = system: T4, TYK2 JH2; assay: Differential scanning fluorimetry (thermal shift); format: binding
Method: as §1

In the case of `Nc1ncnc2c1ncn2[C@@H]1O[C@H](COP(=O)(O)OP(=O)(O)O)[C@@H](O)[C@H]1O` [ADP], the “Effect of nucleotide on Tm (ΔTm)” value (JAK3 JH2 [1]) is reported as “significantly reduced ΔTm compared to ATP”.
In the case of `Nc1ncnc2c1ncn2[C@@H]1O[C@H](COP(=O)(O)O)[C@@H](O)[C@H]1O` [AMP], the “Effect of nucleotide on Tm (ΔTm)” value (JAK3 JH2 [1]) is reported as “no effect on Tm”.
In the case of “2′/3′-(N-methyl-anthraniloyl)-ATP [MANT-ATP]”, the “fold tighter MANT-ATP binding of JAK3 JH2 compared to JAK1 JH2” value (JAK3 JH2 [2]; JAK3 JH2 vs JAK1 JH2) is reported as 6 fold, the “fold tighter MANT-ATP binding of JAK3 JH2 compared to JAK2 JH2” value (JAK3 JH2 [2]; JAK3 JH2 vs JAK2 JH2) is reported as 3 fold and the “fold tighter MANT-ATP binding of JAK3 JH2 compared to TYK2 JH2” value (JAK3 JH2 [2]; JAK3 JH2 vs TYK2 JH2) is reported as 30 fold. The Kd (JAK2 JH2 [3]) was 1.3 µM, the Kd (JAK1 JH2 [4]) was 3.1 µM and the Kd (TYK2 JH2 [5]) was 15 µM.
`Nc1ncnc2c1ncn2[C@@H]1O[C@H](COP(=O)(O)OP(=O)(O)OP(=O)(O)O)[C@@H](O)[C@H]1O` [ATP] gave an IC50 (JAK1 JH2 553-836-His) of 110 µM, an IC50 (JAK2 JH2 503-827-His) of 102 µM and an IC50 (JAK3 JH2 511-790-His) of 16 µM. For the same molecule, the IC50 (TYK2 JH2 564-876-His) was 471 µM, the “ΔTm (1 mM ATP)” value (JAK1 JH2 [6]) was 3.9 °C and the “ΔTm (1 mM ATP)” value (JAK2 JH2 [7]; JAK2 JH2, 1 mM ATP) was 4.9 °C. The TmATP (JAK2 JH2 [7]; melting temperature of JAK2 JH2 with ATP) was 46 °C, the Kd (JAK3 JH2 [1]; 50 nM−1 mM ATP titrated to 3 μM JAK3 JH2, read-out: Kd approximated with DSF) was 40.4 ± 97.1 µM and the ΔTm (JAK3 JH2 [1]; JAK3 JH2, 0.2 mM ATP) was 8 °C. For the same molecule, the TmATP (JAK3 JH2 [1]; melting temperature of JAK3 JH2 with ATP) was 41 °C, the “ΔTm (1 mM ATP)” value (TYK2 JH2 [8]; TYK2 JH2, 1 mM ATP) was 0.9 °C and the TmATP (TYK2 JH2 [8]; melting temperature of TYK2 JH2 with ATP) was 48 °C.
